What is called EC50 is the concentration that produces a half-maximal response.

T1 sequence (P43220 24-463): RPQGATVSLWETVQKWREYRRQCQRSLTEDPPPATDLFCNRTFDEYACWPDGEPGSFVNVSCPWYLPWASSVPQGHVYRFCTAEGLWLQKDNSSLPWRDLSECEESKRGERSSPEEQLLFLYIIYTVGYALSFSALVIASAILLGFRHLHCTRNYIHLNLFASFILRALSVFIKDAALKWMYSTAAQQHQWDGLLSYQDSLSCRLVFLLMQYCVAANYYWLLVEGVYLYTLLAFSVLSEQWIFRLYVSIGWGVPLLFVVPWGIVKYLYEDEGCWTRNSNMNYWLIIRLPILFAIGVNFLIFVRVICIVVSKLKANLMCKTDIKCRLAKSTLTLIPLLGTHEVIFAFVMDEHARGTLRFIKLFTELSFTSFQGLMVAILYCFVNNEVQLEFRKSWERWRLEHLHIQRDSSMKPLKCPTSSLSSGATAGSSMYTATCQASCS

One experiment addresses T1, human GLP-1 receptor (Homo sapiens, UniProt P43220).
T1 construct: HA (N); expressed in transfected cells
Briefly: GLP-1 receptor-mediated agonist activity: cAMP level in hGLP-1R/HEK293 cell line (HTRF). It counts as cell-based. The settings on record: cAMP levels in hGLP-1R/HEK293 cell line; Table 1; read-out: determined EC50.
With `[2H]C([2H])([2H])Oc1cc(C(=O)O)cc2c1nc(CN1CCN(c3cccc4c3OC(C)(c3ccc(Cl)cn3)O4)C=N1)n2C[C@@H]1CCO1` (stereo partly drawn) [Compound 70, 2-((4-(2-(5-chloropyridin-2-yl)-2-methylbenzo[d][1,3]dioxol-4-yl)-5,6-dihydro-1,2,4-triazin-1(4H)-yl)methyl)-4-(methoxy-d3)-1-(((S)-oxetan-2-yl)methyl)-1H-benzo[d]imidazole-6-carboxylic acid], the EC50 stood at 27.3 pM.

Take `COc1cc(C(=O)O)cc2c1nc(CN1CCC(c3cccc4c3OC(C)(c3ccc(C(F)(F)F)cn3)O4)CC1)n2C[C@@H]1CCO1` (stereo partly drawn) [Compound 55, 4-methoxy-2-((4-(2-methyl-2-(5-(trifluoromethyl)pyridin-2-yl)benzo[d][1,3]dioxol-4-yl)piperidin-1-yl)methyl)-1-(((S)-oxetan-2-yl)methyl)-1H-benzo[d]imidazole-6-carboxylic acid]: the EC50 was 25.2 pM.

As to `COc1cc(C(F)(F)F)ccc1C1(C)Oc2cccc(N3C=NN(Cc4nc5c(OC)cc(C(=O)O)cc5n4C[C@@H]4CCO4)CC3)c2O1` (stereo partly drawn) [Compound 88, 4-methoxy-2-((4-(2-(2-methoxy-4-(trifluoromethyl)phenyl)-2-methylbenzo[d][1,3]dioxol-4-yl)-5,6-dihydro-1,2,4-triazin-1(4H)-yl)methyl)-1-(((S)-oxetan-2-yl)methyl)-1H-benzo[d]imidazole-6-carboxylic acid], the EC50 came out at 8.7 pM.

`CCOc1cc(C(=O)O)cc2c1nc(CN1CCC(c3cccnc3OCc3ccc(C#N)cc3F)CC1)n2C[C@@H]1CCO1` [Compound 33, (S)-2-((4-(2-((4-cyano-2-fluorobenzyl)oxy)pyridin-3-yl)piperidin-1-yl)methyl)-4-ethoxy-1-(oxetan-2-ylmethyl)-1H-benzo[d]imidazole-6-carboxylic acid]: the EC50 came out at 46.7 pM.

For the compound `COc1cc(C(=O)O)cc2c1nc(CN1CCC(c3cccc(OCc4ccc(C#N)c5c4OCC5)n3)CC1)n2C[C@@H]1CCO1` [Compound 15, (S)-2-((4-(6-((4-cyano-2,3-dihydrobenzofuran-7-yl)methoxy)pyridin-2-yl)piperidin-1-yl)methyl)-4-methoxy-1-(oxetan-2-ylmethyl)-1H-benzo[d]imidazole-6-carboxylic acid], the concentration giving a half-maximal response (EC50) was 1.9 pM.

`[2H]C([2H])([2H])C([2H])([2H])Oc1cc(C(=O)O)cc2c1nc(CN1CCN(c3cccc4c3OC(C)(c3cc(F)c(Cl)cc3F)O4)C=N1)n2C[C@@H]1CCO1` (stereo partly drawn) [Compound 80, 2-((4-(2-(4-chloro-2,5-difluorophenyl)-2-methylbenzo[d][1,3]dioxol-4-yl)-5,6-dihydro-1,2,4-triazin-1(4H)-yl)methyl)-4-(ethoxy-d5)-1-(((S)-oxetan-2-yl)methyl)-1H-benzo[d]imidazole-6-carboxylic acid]: the EC50 stood at 43.8 pM.

Turning to `CCOc1cc(C(=O)O)cc2c1nc(CN1CCC(c3cccc(OCc4ccc(C(F)(F)F)cc4OC)n3)CC1)n2C[C@@H]1CCO1` [Compound 52, (S)-4-ethoxy-2-((4-(6-((2-methoxy-4-(trifluoromethyl)benzyl)oxy)pyridin-2-yl)piperidin-1-yl)methyl)-1-(oxetan-2-ylmethyl)-1H-benzo[d]imidazole-6-carboxylic acid], the EC50 is 1.2 pM.

With `COc1cc(C(F)(F)F)ccc1COc1cccc(C2CCN(Cc3nc4c(OC)cc(C(=O)O)cc4n3C[C@@H]3CCO3)CC2)n1` [Compound 51, (S)-4-methoxy-2-((4-(6-((2-methoxy-4-(trifluoromethyl)benzyl)oxy)pyridin-2-yl)piperidin-1-yl)methyl)-1-(oxetan-2-ylmethyl)-1H-benzo[d]imidazole-6-carboxylic acid], the EC50 was found to be 1.6 pM.

Regarding `[2H]C([2H])([2H])C([2H])([2H])Oc1cc(C(=O)O)cc2c1nc(CN1CCN(c3cccc4c3OC(C)(c3ccc(F)cc3F)O4)C=N1)n2C[C@@H]1CCO1` (stereo partly drawn) [Compound 87, 2-((4-(2-(2,4-difluorophenyl)-2-methylbenzo[d][1,3]dioxol-4-yl)-5,6-dihydro-1,2,4-triazin-1(4H)-yl)methyl)-4-(ethoxy-d5)-1-(((S)-oxetan-2-yl)methyl)-1H-benzo[d]imidazole-6-carboxylic acid], the EC50 turned out to be 21.2 pM.

Regarding `[2H]C([2H])([2H])C([2H])([2H])Oc1cc(C(=O)O)cc2c1nc(CN1CCN(c3cccc4c3OC(C)(c3ccc(Cl)c(F)c3F)O4)C=N1)n2C[C@@H]1CCO1` (stereo partly drawn) [Compound 77, 2-((4-(2-(4-chloro-2,3-difluorophenyl)-2-methylbenzo[d][1,3]dioxol-4-yl)-5,6-dihydro-1,2,4-triazin-1(4H)-yl)methyl)-4-(ethoxy-d5)-1-(((S)-oxetan-2-yl)methyl)-1H-benzo[d]imidazole-6-carboxylic acid], the EC50 was found to be 16.5 pM.

In the case of `CCOc1cc(C(=O)O)cc2c1nc(CN1CCC(c3cccc4c3OC(C)(c3ccc(C(F)(F)F)cc3OC)O4)CC1)n2C[C@@H]1CCO1` (stereo partly shown) [Compound 60], the EC50 was 2.6 pM.

For the compound `CCOc1cc(C(=O)O)cc2c1nc(CN1CCC(c3cccc4c3OC(C)(c3ccc(C(F)(F)F)cc3F)O4)CC1)n2C[C@@H]1CCO1` (stereo partly drawn) [Compound 54, 4-ethoxy-2-((4-(2-(2-fluoro-4-(trifluoromethyl)phenyl)-2-methylbenzo[d][1,3]dioxol-4-yl)piperidin-1-yl)methyl)-1-(((S)-oxetan-2-yl)methyl)-1H-benzo[d]imidazole-6-carboxylic acid], the EC50 is 7.7 pM.

With `COc1cc(C(=O)O)cc2c1nc(CN1CCN(c3cccc(OCc4ccc(C(F)(F)F)cc4F)n3)C=N1)n2C[C@@H]1CCO1` [Compound 22, (S)-2-((4-(6-((2-fluoro-4-(trifluoromethyl)benzyl)oxy)pyridin-2-yl)-5,6-dihydro-1,2,4-triazin-1(4H)-yl)methyl)-4-methoxy-1-(oxetan-2-ylmethyl)-1H-benzo[d]imidazole-6-carboxylic acid], the EC50 is 8.5 pM.

Turning to `[2H]C([2H])([2H])Oc1cc(C(=O)O)cc2c1nc(CN1CCN(c3cccc4c3OC(C)(c3ccc(Cl)cc3OC)O4)C=N1)n2C[C@@H]1CCO1` (stereo partly drawn) [Compound 84, 2-((4-(2-(4-chloro-2-methoxyphenyl)-2-methylbenzo[d][1,3]dioxol-4-yl)-5,6-dihydro-1,2,4-triazin-1(4H)-yl)methyl)-4-(methoxy-d3)-1-(((S)-oxetan-2-yl)methyl)-1H-benzo[d]imidazole-6-carboxylic acid], the EC50 came to 9.8 pM.

As for `CCCOc1cc(C(=O)O)cc2c1nc(CN1CCN(c3cccc(OCc4ccc(C#N)cc4F)n3)C=N1)n2C[C@@H]1CCO1` [Compound 10, (S)-2-((4-(6-((4-cyano-2-fluorobenzyl)oxy)pyridin-2-yl)-5,6-dihydro-1,2,4-triazin-1(4H)-yl)methyl)-1-(oxetan-2-ylmethyl)-4-propoxy-1H-benzo[d]imidazole-6-carboxylic acid], the EC50 amounted to 4.9 pM.

`[2H]C([2H])([2H])Oc1cc(C(=O)O)cc2c1nc(CN1CCN(c3cccc4c3OC(C)(c3ccc(C(F)(F)F)cc3OC)O4)C=N1)n2C[C@@H]1CCO1` (stereo partly drawn) [Compound 89, 4-(Methoxy-d3)-2-((4-(2-(2-methoxy-4-(trifluoromethyl)phenyl)-2-methylbenzo[d][1,3]dioxol-4-yl)-5,6-dihydro-1,2,4-triazin-1(4H)-yl)methyl)-1-(((S)-oxetan-2-yl)methyl)-1H-benzo[d]imidazole-6-carboxylic acid]: the EC50 came out at 7.5 pM.

Regarding `COc1cc(C(=O)O)cc2c1nc(CN1CCN(c3cccc4c3OC(C)(c3ccc(C(F)(F)F)cn3)O4)C=N1)n2C[C@@H]1CCO1` (stereo partly drawn) [Compound 65, 4-methoxy-2-((4-(2-methyl-2-(5-(trifluoromethyl)pyridin-2-yl)benzo[d][1,3]dioxol-4-yl)-5,6-dihydro-1,2,4-triazin-1(4H)-yl)methyl)-1-(((S)-oxetan-2-yl)methyl)-1H-benzo[d]imidazole-6-carboxylic acid], the EC50 is 49 pM.

Take `COc1cc(C#N)ccc1COc1ncccc1C1CCN(Cc2nc3c(OC)cc(C(=O)O)cc3n2C[C@@H]2CCO2)CC1` [Compound 34, (S)-2-((4-(2-((4-cyano-2-methoxybenzyl)oxy)pyridin-3-yl)piperidin-1-yl)methyl)-4-methoxy-1-(oxetan-2-ylmethyl)-1H-benzo[d]imidazole-6-carboxylic acid]: the concentration for a half-maximal effect (EC50) came out at 3.3 pM.

As to `CCOc1cc(C(=O)O)cc2c1nc(CN1CCN(c3cccc4c3OC(C)(c3ccc(C(F)(F)F)cn3)O4)C=N1)n2C[C@@H]1CCO1` (stereo partly drawn) [Compound 66, 4-ethoxy-2-((4-(2-methyl-2-(5-(trifluoromethyl)pyridin-2-yl)benzo[d][1,3]dioxol-4-yl)-5,6-dihydro-1,2,4-triazin-1(4H)-yl)methyl)-1-(((S)-oxetan-2-yl)methyl)-1H-benzo[d]imidazole-6-carboxylic acid], the EC50 was determined as 5.2 pM.

Turning to `CCOc1cc(C(=O)O)cc2c1nc(CN1CCC(c3cccc4c3OC(C)(c3ccc(Cl)cc3F)O4)CC1)n2C[C@@H]1CCO1` (stereo partly drawn) [Compound 37, 2-((4-(2-(4-chloro-2-fluorophenyl)-2-methylbenzo[d][1,3]dioxol-4-yl)piperidin-1-yl)methyl)-4-ethoxy-1-(((S)-oxetan-2-yl)methyl)-1H-benzo[d]imidazole-6-carboxylic acid], the EC50 turned out to be 6.7 pM.

Consider `[2H]C([2H])([2H])Oc1cc(C(=O)O)cc2c1nc(CN1CCN(c3cccc(OCc4ccc(Cl)cc4F)n3)C=N1)n2C[C@@H]1CCO1` [Compound 26, (S)-2-((4-(6-((4-chloro-2-fluorobenzyl)oxy)pyridin-2-yl)-5,6-dihydro-1,2,4-triazin-1(4H)-yl)methyl)-4-(methoxy-d3)-1-(oxetan-2-ylmethyl)-1H-benzo[d]imidazole-6-carboxylic acid], for which the EC50 was 9.3 pM.

The same experiment, now with this note: cAMP levels of the hGLP-1R/HEK293 cell line; Table 2, comparison with reference compounds; read-out: EC50.
Turning to `CC1(c2ccc(Cl)cn2)Oc2cccc(N3C=NN(Cc4nc5ccc(C(=O)O)cc5n4C[C@@H]4CCO4)CC3)c2O1` (stereo partly shown) [CN2022114139828 , Compound 36, reference compound], the EC50 was 336 pM.

The values are drawn from patent EP4650353A1 (Shanghai Institute of Materia Medica, Chinese Academy of …, priority 2023, dated 2024).
